pIC50: −log10 of the molar value. In brackets after ≈: the same amount, converted by molar mass.
How the values were obtained:
physchem = assay type: physicochemical; conditions: kinetic from dmso stock; 1% DMSO addition conditions; JP-1 or JP-2 solution not stated in result
Procedure: Test Example 9: Solubility Test
A 10 mmol/L solution of the compound was prepared with DMSO, and 2 μL of the solution of the compound of the present invention was added, respectively, to 198 μL of JP-1 solution (water were added to 2.0 g of sodium chloride and 7.0 mL of hydrochloric acid to reach 1000 mL) and JP-2 solution (1 volume of water were added to 1 volume of the solution which 3.40 g of potassium dihydrogen phosphate and 3.55 g of anhydrous disodium hydrogen phosphate to reach 1000 mL). The mixture was shaked for 1 hour at a room temperature, and the mixture was filtered. The filtrate was ten-fold diluted with methanol/water=1/1(v/v), and the compound concentration in the filtrate was measured with LC/MS or SPE/MS by the absolute calibration method.

CYP2C19 = molecular target: T1, CYP2C19 (Homo sapiens, UniProt P33261); experiment: biochemical; assay type: in vitro ADME
T1 construct: Using commercially available pooled human hepatic microsome; from tissue
Description: (§1) Test Example 3: CYP Inhibition Test
(§2) Using commercially available pooled human hepatic microsome, and employing, as markers, 7-ethoxyresorufin O-deethylation (CYP1A2), tolbutamide methyl-hydroxylation (CYP2C9), mephenytoin 4′-hydroxylation (CYP2C19), dextromethorphan O-demethylation (CYP2D6), and terfenedine hydroxylation (CYP3A4) as typical substrate metabolism reactions of human main five CYP enzyme forms (CYP1A2, 2C9, 2C19, 2D6, 3A4), an inhibitory degree of each metabolite production amount by a compound of the present invention was assessed.
(§3) The reaction conditions were as follows: substrate, 0.5 μmol/L ethoxyresorufin (CYP1A2), 100 μmol/L tolbutamide (CYP2C9), 50 μmol/L S-mephenytoinmephenitoin (CYP2C19), 5 μmol/L dextromethorphan (CYP2D6), 1 μmol/L terfenedine (CYP3A4); reaction time, 15 minutes; reaction temperature, 37° C.; enzyme, pooled human hepatic microsome 0.2 mg protein/mL; concentration of a compound of the present invention, 1, 5, 10, 20 μmol/L (four points).
(§4) Each five kinds of substrates, human hepatic microsome, or a compound of the present invention in 50 mmol/L Hepes buffer as a reaction solution was added to a 96-well plate at the composition as described above, NADPH, as a cofactor was added to initiate metabolism reactions as markers and, after the incubation at 37° C. for 15 minutes, a methanol/acetonitrile=1/1 (v/v) solution was added to stop the reaction. After the centrifugation at 3000 rpm for 15 minutes, resorufin (CYP1A2 metabolite) in the supernatant was quantified by a fluorescent multilabel counter and toltributamide hydroxide (CYP2C9P metabolite), mephenytoin 4′ hydroxide (CYP2C19 metabolite), […] (CYP2D6 metabolite), and terfenadine alcohol (CYP3A4 metabolite) were quantified by LC/MS/MS.

CYP2C9 = molecular target: T2, CYP2C9 (Homo sapiens, UniProt P11712); experiment: biochemical; assay type: in vitro ADME
T2 construct: Using commercially available pooled human hepatic microsome; from tissue
Description: as §1, §2, §3, §4

CYP1A2 = molecular target: T3, CYP1A2 (Homo sapiens, UniProt P05177); experiment: biochemical; assay type: in vitro ADME
T3 construct: Using commercially available pooled human hepatic microsome; from tissue
T3 sequence (P05177 1-516): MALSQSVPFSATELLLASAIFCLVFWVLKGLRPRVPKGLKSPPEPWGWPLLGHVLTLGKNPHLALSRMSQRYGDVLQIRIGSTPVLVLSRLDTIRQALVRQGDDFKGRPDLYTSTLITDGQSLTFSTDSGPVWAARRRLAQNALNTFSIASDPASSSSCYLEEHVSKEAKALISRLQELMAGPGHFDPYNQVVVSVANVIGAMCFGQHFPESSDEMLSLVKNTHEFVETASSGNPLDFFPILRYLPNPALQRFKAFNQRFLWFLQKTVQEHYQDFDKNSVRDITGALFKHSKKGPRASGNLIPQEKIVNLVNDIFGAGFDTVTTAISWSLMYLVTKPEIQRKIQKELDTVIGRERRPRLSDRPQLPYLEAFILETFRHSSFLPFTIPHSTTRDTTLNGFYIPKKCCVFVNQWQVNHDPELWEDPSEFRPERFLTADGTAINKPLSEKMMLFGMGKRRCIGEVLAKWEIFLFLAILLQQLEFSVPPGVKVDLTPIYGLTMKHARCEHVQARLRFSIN
Description: as §1, §2, §3, §4

CYP2D6 = molecular target: T4, CYP2D6 (Homo sapiens, UniProt P10635); experiment: biochemical; assay type: in vitro ADME
T4 construct: Using commercially available pooled human hepatic microsome; from tissue
Description: as §1, §2, §3, §4

CYP3A4 = molecular target: T5, CYP3A4 (Homo sapiens, UniProt P08684); experiment: biochemical; assay type: in vitro ADME
T5 construct: Using commercially available pooled human hepatic microsome; from tissue
Description: as §1, §2, §3, §4

hERG (IKr) = molecular target: T6, hERG (IKr) (Homo sapiens, UniProt Q12809); experiment: hERG test; assay type: cell-based; conditions: HEK293 cells expressing hERG channel, pH 7.4, 0.3 to 10 μM of test compound, read-out: % inhibition of tail peak current (IKr)
T6 construct: expressed in transfected cells; host or cells: HEK293
Description: Test Example 8: hERG Test
For the purpose of assessing risk of an electrocardiogram QT interval prolongation of the compound of the present invention, effects of the compound of the present invention on delayed rectifier K+ current (IKr), which plays an important role in the ventricular repolarization process, was studied using HEK293 cells expressing human ether-a-go-go related gene (hERG) channel.
After a cell was retained at a membrane potential of −80 mV by whole cell patch clamp method using an automated patch clamp system (PatchXpress 7000A, Axon Instruments Inc.), IKr induced by depolarization pulse stimulation at +40 mV for 2 seconds and, further, repolarization pulse stimulation at −50 mV for 2 seconds, was recorded. After the generated current was stabilized, extracellular solution (NaCl: 135 mmol/L, KCl: 5.4 mmol/L, NaH2PO4: 0.3 mmol/L, CaCl2.2H2O: 1.8 mmol/L, MgCl2.6H2O: 1 mmol/L, glucose: 10 mmol/L, HEPES (4-(2-hydroxyethyl)-1-piperazineethanesulfonic acid): 10 mmol/L, pH=7.4), in which the compound of the present invention had been dissolved at an objective concentration, was applied to the cell at room temperature for 10 minutes. From the recording IKr, an absolute value of the tail peak current was measured based on the current value at the resting membrane potential using analysis software (DataXpress ver. 1, Molecular Devices Corporation).

T6 sequence (Q12809 whole entry): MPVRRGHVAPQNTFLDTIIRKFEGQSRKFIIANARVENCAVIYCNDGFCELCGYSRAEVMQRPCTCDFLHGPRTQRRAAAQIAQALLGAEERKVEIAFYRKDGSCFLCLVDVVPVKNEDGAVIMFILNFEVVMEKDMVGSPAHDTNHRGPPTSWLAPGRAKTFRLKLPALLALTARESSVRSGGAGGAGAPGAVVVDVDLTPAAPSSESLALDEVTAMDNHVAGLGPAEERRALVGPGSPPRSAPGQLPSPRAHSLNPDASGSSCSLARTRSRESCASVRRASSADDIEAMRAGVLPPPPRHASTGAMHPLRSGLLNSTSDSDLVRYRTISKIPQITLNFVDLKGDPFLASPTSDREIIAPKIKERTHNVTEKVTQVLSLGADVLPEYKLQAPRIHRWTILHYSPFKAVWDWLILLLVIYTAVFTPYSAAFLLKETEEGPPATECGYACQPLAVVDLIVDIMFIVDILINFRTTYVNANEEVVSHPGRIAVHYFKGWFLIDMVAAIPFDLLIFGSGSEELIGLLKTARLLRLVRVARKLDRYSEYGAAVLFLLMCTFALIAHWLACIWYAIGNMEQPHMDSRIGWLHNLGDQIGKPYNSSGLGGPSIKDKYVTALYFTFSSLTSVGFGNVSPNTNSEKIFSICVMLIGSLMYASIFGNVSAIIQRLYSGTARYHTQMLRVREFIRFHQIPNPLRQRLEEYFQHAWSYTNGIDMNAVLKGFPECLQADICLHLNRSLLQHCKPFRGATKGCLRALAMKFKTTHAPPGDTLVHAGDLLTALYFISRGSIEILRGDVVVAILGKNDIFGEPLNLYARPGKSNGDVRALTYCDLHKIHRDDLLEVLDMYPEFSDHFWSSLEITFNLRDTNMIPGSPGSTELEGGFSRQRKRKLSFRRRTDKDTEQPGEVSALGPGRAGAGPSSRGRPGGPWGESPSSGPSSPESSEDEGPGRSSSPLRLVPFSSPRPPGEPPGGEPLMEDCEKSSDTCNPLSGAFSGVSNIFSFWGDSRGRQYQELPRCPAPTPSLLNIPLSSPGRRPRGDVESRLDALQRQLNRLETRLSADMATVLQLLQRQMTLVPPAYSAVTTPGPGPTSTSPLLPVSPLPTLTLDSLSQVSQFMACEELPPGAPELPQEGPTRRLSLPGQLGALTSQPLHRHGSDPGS
T2 sequence (P11712 whole entry): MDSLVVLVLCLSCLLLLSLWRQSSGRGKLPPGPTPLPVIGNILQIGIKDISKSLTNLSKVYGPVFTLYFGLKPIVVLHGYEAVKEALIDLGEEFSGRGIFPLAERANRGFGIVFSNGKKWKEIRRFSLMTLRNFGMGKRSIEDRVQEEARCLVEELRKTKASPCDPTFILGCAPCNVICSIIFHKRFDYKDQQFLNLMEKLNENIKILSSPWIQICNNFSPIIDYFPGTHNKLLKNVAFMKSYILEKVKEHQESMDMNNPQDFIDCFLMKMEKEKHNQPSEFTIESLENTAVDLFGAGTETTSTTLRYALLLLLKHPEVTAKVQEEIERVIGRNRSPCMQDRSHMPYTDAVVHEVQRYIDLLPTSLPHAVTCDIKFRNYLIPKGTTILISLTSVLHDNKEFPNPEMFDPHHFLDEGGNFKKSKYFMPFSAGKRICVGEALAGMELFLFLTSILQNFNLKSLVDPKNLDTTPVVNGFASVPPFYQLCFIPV
T1 sequence (P33261 whole entry): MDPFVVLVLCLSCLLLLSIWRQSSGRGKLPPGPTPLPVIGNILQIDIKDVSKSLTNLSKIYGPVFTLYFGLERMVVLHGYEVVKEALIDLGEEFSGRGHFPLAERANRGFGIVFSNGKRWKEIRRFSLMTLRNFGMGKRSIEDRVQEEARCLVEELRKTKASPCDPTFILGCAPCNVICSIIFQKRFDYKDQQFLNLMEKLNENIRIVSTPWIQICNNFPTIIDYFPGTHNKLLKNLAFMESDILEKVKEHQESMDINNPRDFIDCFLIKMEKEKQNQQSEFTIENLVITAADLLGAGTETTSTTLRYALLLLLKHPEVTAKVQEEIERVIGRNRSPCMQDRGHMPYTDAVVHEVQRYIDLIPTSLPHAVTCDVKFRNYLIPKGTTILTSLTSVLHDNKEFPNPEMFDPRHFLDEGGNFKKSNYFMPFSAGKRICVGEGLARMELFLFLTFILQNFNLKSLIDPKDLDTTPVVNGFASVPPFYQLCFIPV
T4 sequence (P10635 whole entry): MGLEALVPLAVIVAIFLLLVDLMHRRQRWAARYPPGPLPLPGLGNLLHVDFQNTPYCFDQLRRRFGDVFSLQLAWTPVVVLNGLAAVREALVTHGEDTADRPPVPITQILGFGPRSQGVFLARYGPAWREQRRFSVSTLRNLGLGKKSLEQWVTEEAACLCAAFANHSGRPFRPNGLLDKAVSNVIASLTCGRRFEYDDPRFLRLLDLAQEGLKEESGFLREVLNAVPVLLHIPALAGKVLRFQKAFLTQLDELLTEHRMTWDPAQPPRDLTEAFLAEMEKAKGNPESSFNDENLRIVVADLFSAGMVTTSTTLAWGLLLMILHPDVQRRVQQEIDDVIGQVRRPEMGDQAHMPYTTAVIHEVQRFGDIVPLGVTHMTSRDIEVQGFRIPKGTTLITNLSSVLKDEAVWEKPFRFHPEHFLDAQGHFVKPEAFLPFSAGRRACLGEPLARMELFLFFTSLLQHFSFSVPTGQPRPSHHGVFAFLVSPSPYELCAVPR
T5 sequence (P08684 whole entry): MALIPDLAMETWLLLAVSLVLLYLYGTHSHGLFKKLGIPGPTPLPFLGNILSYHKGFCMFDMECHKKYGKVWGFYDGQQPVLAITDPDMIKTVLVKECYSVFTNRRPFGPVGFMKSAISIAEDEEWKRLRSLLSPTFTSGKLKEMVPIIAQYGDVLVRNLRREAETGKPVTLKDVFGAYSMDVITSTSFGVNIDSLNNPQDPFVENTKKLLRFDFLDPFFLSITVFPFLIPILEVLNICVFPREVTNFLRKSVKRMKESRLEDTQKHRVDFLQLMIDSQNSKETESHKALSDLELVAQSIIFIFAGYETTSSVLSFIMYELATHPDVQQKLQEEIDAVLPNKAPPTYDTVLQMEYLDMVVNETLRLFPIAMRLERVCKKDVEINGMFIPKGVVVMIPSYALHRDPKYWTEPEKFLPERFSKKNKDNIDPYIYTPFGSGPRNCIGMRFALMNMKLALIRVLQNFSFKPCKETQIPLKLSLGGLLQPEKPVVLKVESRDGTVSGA

SMILES: O=C1c2c(O)c(=O)ccn2N([C@@H]2c3ccccc3SCc3c2ccc(F)c3F)[C@@H]2COCCN12 [III-2]
- solubility (physchem): 42.2 µM (≈ 20.4 µg/mL)
- pIC50 (CYP2C19): < 4.70
- pIC50 (CYP2C9): < 4.70
- pIC50 (CYP1A2): < 4.70
- pIC50 (CYP2D6): < 4.70
- pIC50 (CYP3A4): < 4.70
- inhibition at 10 min (hERG (IKr)): 7.9%

— patent publication US10633397B2, “Substituted polycyclic pyridone derivatives and prodrugs thereof” (priority 2015, dated 2020)
